Reference: patent publication US20100120700A1, “METHODS AND COMPOSITIONS FOR TREATING CERVICAL CANCER” (priority 2000, published 2010)
Where “and” joins values, the source holds several entries; their conditions need not be identical. Equal values may be shown once.

How the values were obtained:
Assay in all cases: G assay PDZ-PL binding
RGS12 domain 1 = biological target: T1, RGS12 domain 1 (Homo sapiens, UniProt O14924); conditions: peptide 10 uM, protein 5
T1 construct: made in house; host or cells: E. coli (DH5alpha, BL21 or JM109), vector pGEX-3X
Method: (§1) (1) A PDZ-domain polypeptide is bound to a surface, e.g. a protein binding surface. In a preferred embodiment, a GST/PDZ fusion protein containing one or more PDZ domains is bound to a polystyrene 96-well plate. […] In one embodiment, the GST/PDZ fusion protein is bound via an anti-GST antibody that is coated onto the 96-well plate. Adequate binding to the plate can be achieved when: • a. 100 uL per well of 5 ug/mL goat anti-GST polyclonal antibody (Pierce) in PBS is added to a polystyrene 96-well plate (e.g., Num Polysorb) at 4° C. for 12 hours. • b. The plate is blocked by addition of 200 uL per well of PBS/BSA for 2 hours at 4° C. • c. The plate is washed 3 times with PBS. • d. 50 uL per well of 5 ug/mL GST/PDZ fusion protein) or, as a negative control, GST polypeptide alone (i.e. not a fusion protein) in PBS/BSA is added to the plate for 2 hours at 4° C. • e. The plate is again washed 3 times with PBS. […]
(§2) (3) The binding of the biotinylated peptide to the GST/PDZ fusion protein surface can be detected using a variety of methods and detectors known to one of skill in the art. In one embodiment, 100 uL per well of 0.5 ug/mL streptavidin-horse radish peroxidase (HRP) conjugate dissolved in BSA/PBS is added and allowed to react for 20 minutes at 4° C. The plate is then washed 5 times with 50 mM Tris pH 8.0 containing 0.2% Tween 20, and developed by addition of 100 uL per well of HRP-substrate solution (TMB, Dako) for 20 minutes at room temperature (RT). The reaction of the HRP and its substrate is terminated by addition of 100 uL per well of 1M sulfuric acid, and the absorbance of each well of the plate is read at 450 nm.
(§3) (4) Specific binding of a PL peptide and a PDZ domain polypeptide is determined by comparing the signal from the well(s) in which the PL peptide and PDZ domain polypeptide are combined, with the background signal(s). The background signal is the signal found in the negative control(s). Typically a specific or selective reaction will be at least twice background signal, more typically more than 5 times background, and most typically 10 or more times the background signal. In addition, a statistically significant reaction will involve multiple measurements of the reaction with the signal and the background differing by at least two standard errors, more typically four standard errors, and most typically six or more standard errors. Correspondingly, a statistical test (e.g. a T-test) comparing repeated measurements of the signal with-repeated measurements of the background will result in a p-value<0.05, more typically a p-value<0.01, and most typically a p-value<0.001 or less. As noted, in an embodiment of the “G” assay, the signal from binding of a given PL peptide to immobilized (surface bound) GST polypeptide alone is one suitable negative control (sometimes referred to as “B 1”). Because all measurement are done in multiples (i.e. at least duplicate) the arithmetic mean (or, equivalently, average.) of several measurements is used in determining the binding, and the standard error of the mean is used in determining the probable error in the measurement of the binding. The standard error of the mean of N measurements equals the square root of the following: the sum of the squares of the difference between each measurement and the mean, divided by the product of (N) and (N−1). Thus, in one embodiment, specific binding of the PDZ protein to the platebound peptide is determined by comparing the mean signal (“mean S”) and standard error of the signal (“SE”) for a particular PL-PDZ combination with the mean B1.
(§4) For convenience, the assay conditions described in this section are referred to as the “G’ assay” and the “G” assay,” with the specific conditions described in the preceding section on G assays being referred to as the “G° assay.” The “G′ assay” is identical to the “G° assay” except at step (2) the peptide concentration is 10 uM instead of 20 uM. […]

KIAA0561 domain 1 = biological target: T2, KIAA0561 domain 1 (Homo sapiens, UniProt O60307); conditions: peptide 10 uM, protein 5
T2 construct: made in house; host or cells: E. coli (DH5alpha, BL21 or JM109)
Method: as §1, §2, §3, §4

KIAA0380 #25.8 domain 1 = biological target: T3, KIAA0380 #25.8 domain 1 (Homo sapiens, UniProt O15085); conditions: peptide 10 uM, protein 5
T3 construct: made in house; host or cells: E. coli (DH5alpha, BL21 or JM109), vector pGEX-3X
Method: as §1, §2, §3, §4

KIAA0147 domain 2 = biological target: T4, KIAA0147 domain 2 (Homo sapiens, UniProt Q14160); conditions: peptide 10 uM, protein 5
T4 construct: made in house; host or cells: E. coli (DH5alpha or BL-21)
Method: as §1, §2, §3, §4

Magi2 domain 1 = biological target: T5, Magi2 domain 1 (Homo sapiens, UniProt Q86UL8); conditions: vs GST only well, peptide 10 uM, protein 5
T5 construct: made in house; host or cells: E. coli (DH5alpha, BL21 or JM109)
Method: as §1, §2, §3, §4

PDZK1 domain 2, 3, 4 = biological target: T6, PDZK1 domain 2, 3, 4 (Homo sapiens, UniProt Q5T2W1); conditions: peptide 10 uM, protein 5
T6 construct: When more than one PDZ domain was cloned, the DNA portion cloned represents the PDZ domains and the cDNA portion located between individual domains; made in house; host or cells: E. coli (DH5alpha, BL21 or JM109)
Method: as §1, §2, §3, §4

FLJ11215 domain 1 = biological target: T7, FLJ11215 domain 1 (Homo sapiens, UniProt Q9NUP9); conditions: peptide 10 uM, protein 5
T7 construct: made in house; host or cells: E. coli (DH5alpha, BL21 or JM109), vector pGEX-3X
Method: as §1, §2, §3, §4

KIAA0973 #148.4 domain 1 = biological target: T8, KIAA0973 #148.4 domain 1 (Homo sapiens, UniProt Q9Y2H9); conditions: peptide 10 uM, protein 5
T8 construct: made in house; host or cells: E. coli (DH5alpha, BL21 or JM109)
Method: as §1, §2, §3, §4

EBP50 #287.1 domain 2 = biological target: T9, EBP50 #287.1 domain 2 (Homo sapiens, UniProt O14745); conditions: peptide 10 uM, protein 5
T9 construct: made in house; host or cells: E. coli (DH5alpha, BL21 or JM109)
Method: as §1, §2, §3, §4

NeDLG domain 1 = biological target: T10, NeDLG domain 1 (Homo sapiens, UniProt Q92796, D190E); conditions: peptide 10 uM, protein 5
T10 construct: made in house; host or cells: E. coli (DH5alpha, BL21 or JM109)
Method: as §1, §2, §3, §4

PTPL1 domain 2 = biological target: T11, PTPL1 domain 2 (Homo sapiens, UniProt Q12923); conditions: peptide 10 uM, protein 5
T11 construct: made in house; host or cells: E. coli (DH5alpha, BL21 or JM109)
Method: as §1, §2, §3, §4

HTRA 3 domain 1 = biological target: T12, HTRA 3 domain 1 (Homo sapiens, UniProt P83110); conditions: peptide 10 uM, protein 5
T12 construct: made in house; host or cells: E. coli (DH5alpha or BL-21)
Method: as §1, §2, §3, §4

PIST domain 1 = biological target: T13, PIST domain 1 (Homo sapiens, UniProt Q9HD26); conditions: peptide 10 uM, protein 5
T13 construct: made in house; host or cells: E. coli (DH5alpha or BL-21)
Method: as §1, §2, §3, §4

T7 sequence (Q9NUP9 86-182): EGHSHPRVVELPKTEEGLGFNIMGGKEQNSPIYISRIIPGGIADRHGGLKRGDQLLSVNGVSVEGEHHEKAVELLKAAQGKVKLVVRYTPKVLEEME
T8 sequence (Q9Y2H9 963-1055): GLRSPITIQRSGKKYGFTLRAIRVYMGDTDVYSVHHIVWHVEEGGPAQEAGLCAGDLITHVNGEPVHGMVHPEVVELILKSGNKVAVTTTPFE
T1 sequence (O14924 with tags, fused parts or gaps): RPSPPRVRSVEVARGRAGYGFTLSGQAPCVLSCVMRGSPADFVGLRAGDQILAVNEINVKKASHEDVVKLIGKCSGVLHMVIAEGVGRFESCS
T2 sequence (O60307 with tags, fused parts or gaps): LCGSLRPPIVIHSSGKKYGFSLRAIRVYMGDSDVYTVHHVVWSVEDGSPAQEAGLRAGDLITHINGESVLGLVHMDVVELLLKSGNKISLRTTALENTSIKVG
T9 sequence (O14745 with tags, fused parts or gaps): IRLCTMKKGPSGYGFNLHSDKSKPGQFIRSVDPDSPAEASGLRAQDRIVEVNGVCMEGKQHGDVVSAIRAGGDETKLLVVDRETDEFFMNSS
T4 sequence (Q14160 856-952): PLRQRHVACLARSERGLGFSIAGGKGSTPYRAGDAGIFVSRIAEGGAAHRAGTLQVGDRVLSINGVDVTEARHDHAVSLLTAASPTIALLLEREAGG
T3 sequence (O15085 45-123): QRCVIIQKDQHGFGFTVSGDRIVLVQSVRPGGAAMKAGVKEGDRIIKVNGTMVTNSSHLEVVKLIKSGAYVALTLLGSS
T10 sequence (Q92796 with tags, fused parts or gaps D190E): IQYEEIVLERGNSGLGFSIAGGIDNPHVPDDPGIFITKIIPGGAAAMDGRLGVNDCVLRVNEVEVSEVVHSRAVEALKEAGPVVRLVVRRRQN
T5 sequence (Q86UL8 408-511): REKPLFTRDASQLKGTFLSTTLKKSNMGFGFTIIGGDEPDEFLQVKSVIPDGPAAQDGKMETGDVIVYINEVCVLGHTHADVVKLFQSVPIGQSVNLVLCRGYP
T11 sequence (Q12923 1364-1458): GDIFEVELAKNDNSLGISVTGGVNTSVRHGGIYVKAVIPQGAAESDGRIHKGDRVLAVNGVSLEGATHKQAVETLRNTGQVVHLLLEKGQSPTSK
T12 sequence (P83110 with tags, fused parts or gaps): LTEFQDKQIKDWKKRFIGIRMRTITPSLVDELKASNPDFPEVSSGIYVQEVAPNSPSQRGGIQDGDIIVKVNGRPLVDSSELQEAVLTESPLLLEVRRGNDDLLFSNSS

20 mer peptide corresponding to the C-terminus of HPV16 E6 (PDZ ligand), biotinylated in binding assays; ends SSRTRRETQL (SEQ ID NO: 13) [HPV E6 #16]
Ave OD (RGS12 domain 1; A450 nm): 0.4295 and 0.661
OD S/N (RGS12 domain 1; vs GST only well): 3.96 and 4.64
Ave OD (KIAA0561 domain 1; A450 nm): 0.3475
OD S/N (KIAA0561 domain 1; vs GST only well): 2.44
Ave OD (KIAA0380 #25.8 domain 1; A450 nm): 0.603
OD S/N (KIAA0380 #25.8 domain 1; vs GST only well): 3.58
Ave OD (KIAA0147 domain 2; A450 nm): 0.3745
OD S/N (KIAA0147 domain 2; vs GST only well): 2.46
OD S/N (Magi2 domain 1): 11.59 and 7.23
Ave OD (PDZK1 domain 2, 3, 4; A450 nm): 0.518
OD S/N (PDZK1 domain 2, 3, 4; vs GST only well): 2.64
Ave OD (FLJ11215 domain 1; A450 nm): 0.449 and 0.666
OD S/N (FLJ11215 domain 1; vs GST only well): 2.77 and 2.74
Ave OD (KIAA0973 #148.4 domain 1; A450 nm): 1.0105 and 0.6885
OD S/N (KIAA0973 #148.4 domain 1; vs GST only well): 6.22 and 5.12
Ave OD (EBP50 #287.1 domain 2; A450 nm): 0.499
OD S/N (EBP50 #287.1 domain 2; vs GST only well): 2.57
Ave OD (NeDLG domain 1; A450 nm): 0.5165
OD S/N (NeDLG domain 1; vs GST only well): 1.98
Ave OD (PTPL1 domain 2; A450 nm): 0.348
OD S/N (PTPL1 domain 2; vs GST only well): 1.80
Ave OD (HTRA 3 domain 1; A450 nm): 0.4135
OD S/N (HTRA 3 domain 1; vs GST only well): 1.34
Ave OD (PIST domain 1; A450 nm): 0.3855
OD S/N (PIST domain 1; vs GST only well): 1.96
